From paper PMC10239507, “Development of allosteric and selective CDK2 inhibitors for contraception with negative cooperativity to cyclin binding” (Nature Communications, 2023)

What was measured:
Assay in all cases: biochemical
[1] = molecular target: T1, 371 kinases (kinase named in each endpoint) (Homo sapiens, UniProt P50750)
T1 construct: purchased Reaction Biology

[2] = molecular target: T2, 371 kinases (kinase named in each endpoint) (Homo sapiens, UniProt Q9UBS0); details: P70S6KB/RPS6KB2
T2 construct: purchased Reaction Biology

[3] = molecular target: T3, 371 kinases (kinase named in each endpoint) (Homo sapiens, UniProt O14733); details: MKK7
T3 construct: purchased Reaction Biology
T3 sequence (O14733 whole entry): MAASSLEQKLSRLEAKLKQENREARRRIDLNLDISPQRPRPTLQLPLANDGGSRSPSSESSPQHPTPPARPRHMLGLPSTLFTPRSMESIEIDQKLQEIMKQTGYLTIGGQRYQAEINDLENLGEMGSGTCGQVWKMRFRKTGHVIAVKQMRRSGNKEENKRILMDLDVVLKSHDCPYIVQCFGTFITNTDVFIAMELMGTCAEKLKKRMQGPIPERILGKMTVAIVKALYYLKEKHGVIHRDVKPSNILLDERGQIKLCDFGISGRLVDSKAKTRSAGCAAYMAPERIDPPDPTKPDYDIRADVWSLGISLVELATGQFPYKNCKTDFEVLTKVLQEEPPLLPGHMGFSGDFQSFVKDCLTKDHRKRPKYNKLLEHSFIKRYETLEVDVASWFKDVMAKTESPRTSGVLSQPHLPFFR

[4] = molecular target: T4, 371 kinases (kinase named in each endpoint) (Homo sapiens, UniProt P80192); details: MLK1/MAP3K9
T4 construct: purchased Reaction Biology

[5] = molecular target: T5, 371 kinases (kinase named in each endpoint) (Homo sapiens, UniProt Q13627); details: DYRK1/DYRK1A
T5 construct: purchased Reaction Biology

[6] = molecular target: T6, 371 kinases (kinase named in each endpoint) (Homo sapiens, UniProt Q08881); details: ITK
T6 construct: purchased Reaction Biology

[7] = molecular target: T7, 371 kinases (kinase named in each endpoint) (Homo sapiens, UniProt O95819); details: HGK/MAP4K4
T7 construct: purchased Reaction Biology

[8] = molecular target: T8, 371 kinases (kinase named in each endpoint) (Homo sapiens, UniProt P78368); details: CK1G2
T8 construct: purchased Reaction Biology

[9] = molecular target: T9, 371 kinases (kinase named in each endpoint) (Homo sapiens, UniProt Q9UEW8); details: STK39/STLK3
T9 construct: purchased Reaction Biology

[10] = molecular target: T10, 371 kinases (kinase named in each endpoint) (Homo sapiens, UniProt Q9UL54); details: TAOK2/TAO1
T10 construct: purchased Reaction Biology

[11] = molecular target: T11, 371 kinases (kinase named in each endpoint) (Homo sapiens, UniProt Q6DT37); details: DMPK2
T11 construct: purchased Reaction Biology
T11 sequence (Q6DT37 whole entry): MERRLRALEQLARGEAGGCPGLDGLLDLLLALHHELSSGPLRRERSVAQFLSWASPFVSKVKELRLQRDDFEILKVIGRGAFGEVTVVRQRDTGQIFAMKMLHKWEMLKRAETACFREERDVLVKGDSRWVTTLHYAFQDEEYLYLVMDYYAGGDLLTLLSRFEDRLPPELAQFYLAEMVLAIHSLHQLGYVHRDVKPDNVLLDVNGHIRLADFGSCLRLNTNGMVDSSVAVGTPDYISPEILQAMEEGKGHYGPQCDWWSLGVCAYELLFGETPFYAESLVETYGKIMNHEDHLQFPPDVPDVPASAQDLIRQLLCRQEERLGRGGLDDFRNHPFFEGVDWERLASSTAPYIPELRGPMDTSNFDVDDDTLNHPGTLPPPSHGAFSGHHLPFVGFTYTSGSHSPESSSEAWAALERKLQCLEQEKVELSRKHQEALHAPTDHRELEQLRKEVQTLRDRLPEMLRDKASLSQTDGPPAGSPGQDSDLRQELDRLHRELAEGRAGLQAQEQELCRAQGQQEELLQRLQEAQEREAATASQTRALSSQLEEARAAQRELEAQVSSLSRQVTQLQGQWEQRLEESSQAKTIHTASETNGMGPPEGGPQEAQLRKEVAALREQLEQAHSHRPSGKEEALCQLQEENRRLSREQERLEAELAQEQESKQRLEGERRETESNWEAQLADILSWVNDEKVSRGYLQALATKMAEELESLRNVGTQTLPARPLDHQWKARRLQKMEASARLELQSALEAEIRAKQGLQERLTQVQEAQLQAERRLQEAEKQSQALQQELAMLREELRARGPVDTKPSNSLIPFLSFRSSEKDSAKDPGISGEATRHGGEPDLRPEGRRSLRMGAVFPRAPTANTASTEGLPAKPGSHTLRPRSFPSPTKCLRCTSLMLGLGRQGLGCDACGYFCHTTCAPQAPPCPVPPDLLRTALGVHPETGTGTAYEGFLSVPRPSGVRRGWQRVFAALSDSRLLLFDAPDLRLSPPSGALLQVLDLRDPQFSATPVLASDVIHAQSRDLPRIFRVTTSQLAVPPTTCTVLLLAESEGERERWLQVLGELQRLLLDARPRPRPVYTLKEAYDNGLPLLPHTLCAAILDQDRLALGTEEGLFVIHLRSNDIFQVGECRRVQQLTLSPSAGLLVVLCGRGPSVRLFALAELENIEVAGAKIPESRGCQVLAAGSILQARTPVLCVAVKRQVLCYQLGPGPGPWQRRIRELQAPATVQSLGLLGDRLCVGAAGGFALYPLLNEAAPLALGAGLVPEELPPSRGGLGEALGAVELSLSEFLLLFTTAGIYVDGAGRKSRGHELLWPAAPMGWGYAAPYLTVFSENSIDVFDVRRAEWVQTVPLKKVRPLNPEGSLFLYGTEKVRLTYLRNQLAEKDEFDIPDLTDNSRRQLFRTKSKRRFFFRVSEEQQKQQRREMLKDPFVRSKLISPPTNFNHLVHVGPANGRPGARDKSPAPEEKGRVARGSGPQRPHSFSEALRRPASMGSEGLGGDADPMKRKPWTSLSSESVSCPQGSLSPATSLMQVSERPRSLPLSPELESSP

[12] = molecular target: T12, 371 kinases (kinase named in each endpoint) (Homo sapiens, UniProt O00311); details: CDC7/DBF4
T12 construct: purchased Reaction Biology
T12 sequence (O00311 whole entry): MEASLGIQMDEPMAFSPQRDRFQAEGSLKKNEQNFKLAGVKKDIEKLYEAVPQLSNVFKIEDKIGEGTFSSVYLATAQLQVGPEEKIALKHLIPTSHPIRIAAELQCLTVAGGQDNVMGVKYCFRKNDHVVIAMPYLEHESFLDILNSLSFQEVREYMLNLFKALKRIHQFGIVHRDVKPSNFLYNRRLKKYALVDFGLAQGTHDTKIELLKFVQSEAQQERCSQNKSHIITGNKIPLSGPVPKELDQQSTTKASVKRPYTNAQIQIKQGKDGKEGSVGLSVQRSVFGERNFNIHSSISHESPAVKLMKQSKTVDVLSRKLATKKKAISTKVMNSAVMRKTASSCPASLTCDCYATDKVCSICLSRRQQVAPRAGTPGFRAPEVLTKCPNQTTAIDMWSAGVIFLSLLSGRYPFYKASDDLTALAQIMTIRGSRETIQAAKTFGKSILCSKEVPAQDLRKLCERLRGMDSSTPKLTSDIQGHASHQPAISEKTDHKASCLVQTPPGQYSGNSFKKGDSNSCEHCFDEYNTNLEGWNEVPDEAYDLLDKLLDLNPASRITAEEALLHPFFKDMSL

[13] = molecular target: T13, 371 kinases (kinase named in each endpoint) (Homo sapiens, UniProt Q15759); details: P38B/MAPK11
T13 construct: purchased Reaction Biology
T13 sequence (Q15759 whole entry): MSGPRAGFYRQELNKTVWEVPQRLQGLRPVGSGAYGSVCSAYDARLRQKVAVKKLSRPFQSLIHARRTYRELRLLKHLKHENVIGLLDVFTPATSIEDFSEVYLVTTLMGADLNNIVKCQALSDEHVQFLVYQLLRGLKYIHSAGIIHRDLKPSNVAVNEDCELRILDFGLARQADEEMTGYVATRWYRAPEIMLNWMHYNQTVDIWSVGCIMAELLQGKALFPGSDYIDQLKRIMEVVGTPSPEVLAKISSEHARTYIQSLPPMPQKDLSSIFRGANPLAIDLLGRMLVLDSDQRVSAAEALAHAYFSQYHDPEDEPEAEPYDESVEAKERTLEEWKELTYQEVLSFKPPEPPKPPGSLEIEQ

[14] = molecular target: T14, 371 kinases (kinase named in each endpoint) (Homo sapiens, UniProt Q9NRH2); details: SNRK
T14 construct: purchased Reaction Biology

[15] = molecular target: T15, 371 kinases (kinase named in each endpoint) (Homo sapiens, UniProt P23458); details: JAK1
T15 construct: purchased Reaction Biology

[16] = molecular target: T16, 371 kinases (kinase named in each endpoint) (Homo sapiens, UniProt P37023); details: ALK1/ACVRL1
T16 construct: purchased Reaction Biology

[17] = molecular target: T17, 371 kinases (kinase named in each endpoint) (Homo sapiens, UniProt O75460); details: ERN1/IRE1
T17 construct: purchased Reaction Biology

[18] = molecular target: T18, 371 kinases (kinase named in each endpoint) (Homo sapiens, UniProt P17252); details: PKCA
T18 construct: purchased Reaction Biology

[19] = molecular target: T19, 371 kinases (kinase named in each endpoint) (Homo sapiens, UniProt Q15746); details: MLCK/MYLK
T19 construct: purchased Reaction Biology

[20] = molecular target: T20, 371 kinases (kinase named in each endpoint) (Homo sapiens, UniProt P53350); details: PLK1
T20 construct: purchased Reaction Biology

[21] = molecular target: T21, 371 kinases (kinase named in each endpoint) (Homo sapiens, UniProt Q9Y463); details: DYRK1B
T21 construct: purchased Reaction Biology

[22] = molecular target: T22, 371 kinases (kinase named in each endpoint) (Homo sapiens, UniProt Q15375); details: EPHA7
T22 construct: purchased Reaction Biology

[23] = molecular target: T23, 371 kinases (kinase named in each endpoint) (Homo sapiens, UniProt P36894); details: ALK3/BMPR1A
T23 construct: purchased Reaction Biology
T23 sequence (P36894 24-532): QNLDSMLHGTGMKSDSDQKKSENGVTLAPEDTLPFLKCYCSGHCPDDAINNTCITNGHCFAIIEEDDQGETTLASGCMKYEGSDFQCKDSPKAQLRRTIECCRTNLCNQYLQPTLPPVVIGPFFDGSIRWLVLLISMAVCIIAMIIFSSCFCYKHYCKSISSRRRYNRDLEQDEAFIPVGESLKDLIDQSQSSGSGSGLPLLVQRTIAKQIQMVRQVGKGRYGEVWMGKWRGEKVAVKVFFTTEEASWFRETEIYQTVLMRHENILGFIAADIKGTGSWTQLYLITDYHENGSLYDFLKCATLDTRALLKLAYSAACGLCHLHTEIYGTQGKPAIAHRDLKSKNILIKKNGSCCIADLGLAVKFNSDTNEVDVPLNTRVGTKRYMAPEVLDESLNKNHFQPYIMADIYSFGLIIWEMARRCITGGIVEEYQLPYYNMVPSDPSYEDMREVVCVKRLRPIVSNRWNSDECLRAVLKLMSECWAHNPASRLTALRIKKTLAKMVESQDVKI

[24] = molecular target: T24, 371 kinases (kinase named in each endpoint) (Homo sapiens, UniProt Q13043); details: MST1/STK4
T24 construct: purchased Reaction Biology

[25] = molecular target: T25, 371 kinases (kinase named in each endpoint) (Homo sapiens, UniProt O60674); details: JAK2
T25 construct: purchased Reaction Biology

[26] = molecular target: T26, 371 kinases (kinase named in each endpoint) (Homo sapiens, UniProt O96017); details: CHK2
T26 construct: purchased Reaction Biology

[27] = molecular target: T27, 371 kinases (kinase named in each endpoint) (Homo sapiens, UniProt Q9UPE1); details: MSSK1/STK23
T27 construct: purchased Reaction Biology

[28] = molecular target: T28, 371 kinases (kinase named in each endpoint) (Homo sapiens, UniProt Q9H4B4); details: PLK3
T28 construct: purchased Reaction Biology

[29] = molecular target: T29, 371 kinases (kinase named in each endpoint) (Homo sapiens, UniProt Q96PF2); details: TSSK2
T29 construct: purchased Reaction Biology

[30] = molecular target: T30, 371 kinases (kinase named in each endpoint) (Homo sapiens, UniProt Q07002); details: CDK18/CYCLIN Y (PCTK3)
T30 construct: purchased Reaction Biology

[31] = molecular target: T31, 371 kinases (kinase named in each endpoint) (Homo sapiens, UniProt Q9BYT3); details: STK33
T31 construct: purchased Reaction Biology

[32] = molecular target: T32, 371 kinases (kinase named in each endpoint) (Homo sapiens, UniProt Q9BYP7); details: WNK3
T32 construct: purchased Reaction Biology

[33] = molecular target: T33, 371 kinases (kinase named in each endpoint) (Homo sapiens, UniProt Q16816); details: PHKG1
T33 construct: purchased Reaction Biology
T33 sequence (Q16816 whole entry): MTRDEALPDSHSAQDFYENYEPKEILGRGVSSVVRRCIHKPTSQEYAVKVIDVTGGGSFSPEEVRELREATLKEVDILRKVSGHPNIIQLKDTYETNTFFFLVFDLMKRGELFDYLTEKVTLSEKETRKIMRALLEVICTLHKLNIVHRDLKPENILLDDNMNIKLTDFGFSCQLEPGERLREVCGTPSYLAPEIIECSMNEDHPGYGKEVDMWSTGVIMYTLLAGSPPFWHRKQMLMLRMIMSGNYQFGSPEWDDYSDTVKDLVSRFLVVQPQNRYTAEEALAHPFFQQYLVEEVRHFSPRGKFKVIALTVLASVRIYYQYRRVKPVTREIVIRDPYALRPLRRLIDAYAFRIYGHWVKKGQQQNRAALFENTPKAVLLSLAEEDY

[34] = molecular target: T34, 371 kinases (kinase named in each endpoint) (Homo sapiens, UniProt Q09013); details: DMPK
T34 construct: purchased Reaction Biology

[35] = molecular target: T35, 371 kinases (kinase named in each endpoint) (Homo sapiens, UniProt Q99759); details: MEKK3
T35 construct: purchased Reaction Biology
T35 sequence (Q99759 whole entry): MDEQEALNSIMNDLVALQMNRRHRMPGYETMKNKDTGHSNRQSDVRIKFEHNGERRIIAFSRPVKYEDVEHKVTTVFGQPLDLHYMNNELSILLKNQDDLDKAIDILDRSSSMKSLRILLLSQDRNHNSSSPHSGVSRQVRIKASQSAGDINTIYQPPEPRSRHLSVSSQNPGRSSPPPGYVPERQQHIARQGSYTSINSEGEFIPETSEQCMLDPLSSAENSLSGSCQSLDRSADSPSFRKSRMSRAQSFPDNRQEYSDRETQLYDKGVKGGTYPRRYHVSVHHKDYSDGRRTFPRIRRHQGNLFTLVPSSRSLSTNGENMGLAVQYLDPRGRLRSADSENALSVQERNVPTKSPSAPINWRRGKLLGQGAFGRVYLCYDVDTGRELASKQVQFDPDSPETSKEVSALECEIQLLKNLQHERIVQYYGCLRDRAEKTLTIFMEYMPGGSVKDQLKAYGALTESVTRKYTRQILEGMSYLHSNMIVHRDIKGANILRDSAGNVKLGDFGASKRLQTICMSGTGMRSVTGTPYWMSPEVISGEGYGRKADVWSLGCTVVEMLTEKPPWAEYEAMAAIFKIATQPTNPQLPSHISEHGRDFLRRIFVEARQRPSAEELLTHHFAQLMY

[36] = molecular target: T36, 371 kinases (kinase named in each endpoint) (Homo sapiens, UniProt Q96PN8); details: TSSK3/STK22C
T36 construct: purchased Reaction Biology

T1 sequence (P50750 whole entry): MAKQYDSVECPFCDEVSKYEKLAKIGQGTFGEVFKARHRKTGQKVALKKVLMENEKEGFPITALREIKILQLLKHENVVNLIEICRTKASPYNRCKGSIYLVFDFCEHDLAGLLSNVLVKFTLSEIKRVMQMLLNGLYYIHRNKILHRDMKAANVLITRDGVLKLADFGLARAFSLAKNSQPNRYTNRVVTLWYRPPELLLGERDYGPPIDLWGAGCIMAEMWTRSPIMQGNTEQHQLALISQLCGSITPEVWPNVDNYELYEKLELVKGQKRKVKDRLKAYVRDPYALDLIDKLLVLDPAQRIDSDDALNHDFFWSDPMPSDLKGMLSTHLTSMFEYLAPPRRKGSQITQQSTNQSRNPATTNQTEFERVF

O=C(O)c1cc(C(F)(F)F)ccc1NCCc1c[nH]c2cc(Br)ccc12 [Compound 5, 2-((2-(6-Bromo-1H-indol-3-yl)ethyl)amino)−5-(trifluoromethyl)benzoic Acid]
activity at 10 µM ([1]; CDK9/CYCLIN K): 88.6 ± 0.7%
activity at 10 µM ([1]; CDK9/CYCLIN T1): 81.5 ± 1.5%
activity at 10 µM ([1]; CDK9/CYCLIN T2): 84.5 ± 0.4%
activity at 10 µM [2]: 96.1 ± 1.6%
activity at 10 µM [3]: 90.6 ± 0.3%
activity at 10 µM [4]: 95.8 ± 0.2%
activity at 10 µM [5]: 80 ± 5.9%
activity at 10 µM [6]: 127 ± 0.1%
activity at 10 µM [7]: 50.4 ± 0.4%
activity at 10 µM [8]: 102 ± 1.6%
activity at 10 µM [9]: 113.4 ± 0.1%
activity at 10 µM [10]: 100.9 ± 0.2%
activity at 10 µM [11]: 96.2 ± 1.7%
activity at 10 µM [12]: 77.9 ± 2.9%
activity at 10 µM [13]: 140 ± 2.3%
activity at 10 µM [14]: 80.4 ± 2.1%
activity at 10 µM [15]: 67.7 ± 0.8%
activity at 10 µM [16]: 67.3 ± 1.4%
activity at 10 µM [17]: 101 ± 0.6%
activity at 10 µM [18]: 123 ± 5.3%
activity at 10 µM [19]: 57.6 ± 2%
activity at 10 µM [20]: 92.7 ± 1.5%
activity at 10 µM [21]: 64.8 ± 1.1%
activity at 10 µM [22]: 82.8 ± 2.2%
activity at 10 µM [23]: 71.1 ± 2%
activity at 10 µM [24]: 89.6 ± 2.7%
activity at 10 µM [25]: 78.8 ± 1.9%
activity at 10 µM [26]: 90.2 ± 1.5%
activity at 10 µM [27]: 69.7 ± 3%
activity at 10 µM [28]: 79.3 ± 3.7%
activity at 10 µM [29]: 79.9 ± 2.4%
activity at 10 µM [30]: 99 ± 0.1%
activity at 10 µM [31]: 85.1 ± 4.1%
activity at 10 µM [32]: 100.7 ± 0.4%
activity at 10 µM [33]: 87 ± 2.6%
activity at 10 µM [34]: 108.2 ± 0.2%
activity at 10 µM [35]: 107 ± 1.1%
activity at 10 µM [36]: 68.9 ± 0.2%
